Reference: article PMC5290484, “Structure and lipid-binding properties of the kindlin-3 pleckstrin homology domain” (Biochemical Journal, 2017)
Read-outs that look alike come from different tables or passages of the source.

Experiments:
Grp1 PH domain [1] = molecular target: T1, Grp1 PH domain (Homo sapiens, UniProt O43739); experiment: SPR, immobilised lipid headgroup as ligand, Grp1 PH domain as analyte; format: binding
T1 construct: UniProtKB: O43739) PH domain (residues 264–392) were cloned into a pOPINJ vector; His6-GST (tandem), followed by HRV-3C site (N, cleaved yes); made in house; host or cells: E. coli (same protocol as kindlin-3 PH, B834)
T1 sequence (O43739 264-392): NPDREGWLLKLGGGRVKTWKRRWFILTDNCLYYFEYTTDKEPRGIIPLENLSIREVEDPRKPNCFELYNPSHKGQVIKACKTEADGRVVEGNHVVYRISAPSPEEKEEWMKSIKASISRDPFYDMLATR
Description: We further asked whether our observations are specific to the kindlin-3 PH domain (and similar domains) or could also be shown for PH domains which are already known to bind to inositol phosphate species in a classical, 1:1 interaction mode. If they could be shown for such well-characterised domains, then our results with the kindlin-3 PH domain would seem questionable. […] So, in the case of Grp1, there is only a five times difference in affinity between immobilised lipid headgroups and whole lipids in a lipid nanodisc (rather than the ∼100× enhancement observed with the kindlin-3 PH domain).
SPR experiments were performed using a Biacore T200 machine (GE Healthcare Life Sciences) at 20°C in 10 mM HEPES (pH 7.5) and 150 mM NaCl. PtdIns(4,5)P2 (C-45B6a) and PtdIns(3,4,5)P3 (C-39B6a) were purchased from Echelon Biosciences. The BIAcore CM5 chip (GE Healthcare Life Sciences) was firstly covered with streptavidin following the manufacturer's instructions before the biotinylated PIPs or biotinylated proteins were immobilised. The analyte with twofold serial dilutions was applied at a flow rate of 20 µl/min for 180 s followed by 600 s of dissociation time. […]

kindlin-3 PH domain [2] = molecular target: T2, kindlin-3 PH domain (Mus musculus, UniProt Q8K1B8); experiment: SPR, immobilised biotinylated kindlin-3 PH domain as ligand, lipid nanodiscs as analyte; format: binding
T2 construct: kindlin-3 PH domain (residues 344–479); His6-GST (tandem), followed by HRV-3C site (N, cleaved yes); made in house; host or cells: BirA+ Escherichia coli strain
T2 sequence (Q8K1B8 344-479): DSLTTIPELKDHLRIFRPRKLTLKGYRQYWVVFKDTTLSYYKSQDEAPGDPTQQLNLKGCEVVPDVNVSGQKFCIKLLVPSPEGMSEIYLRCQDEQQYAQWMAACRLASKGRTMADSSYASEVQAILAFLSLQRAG
Description: (§1) The observation in MD simulation that multiple phosphoinositol molecules may bind to more than one site on a single PH domain (Figures 2 and 3) led us to attempt further verification of this mode of interaction experimentally. […] To study the effect of phosphatidylinositol lipid concentrations on their binding by PH domains, we performed the SPR experiments in an inverted set-up. The biotinylated PH domain was immobilised onto the sensor chip and the nanodiscs were prepared as the analyte.
POPC and POPE (1-palmitoyl-2-oleoyl-sn-glycero-3-phosphoethanolamine) were purchased from Avanti Polar Lipids, and PtdIns(4,5)P2 (P-4516), PtdIns(3,4,5)P3 (P-3924), and Ins(1,3,4,5)P4 (Q-1345) were purchased from Echelon Biosciences. Nanodiscs were prepared following standard protocols. Briefly, to prepare nandiscs containing 5% (mol/mol) PtdIns(3,4,5)P3, a mixture of 200 µl of 10 mg/ml POPC, 200 µl of 10 mg/ml POPE together with 670 µl of 0.5 mg/ml PtdIns(3,4,5)P3 in chloroform were dried on a clean Pyrex tube under argon. Chloroform residue was then removed by desiccation in a desiccator attached on a VARIO-SP diaphragm pump (Vacuubrand). The lipid film was subsequently hydrated by adding 1 ml of solubilisation buffer [20 mM HEPES (pH 7.5), 150 mM NaCl, and 17 mM Na-cholate] followed by vigorous votexing. […]

Grp1 PH domain [3] = molecular target: T1, Grp1 PH domain; set-up: method as in PMID 26977543; details: same method; ref [34]; cited from earlier work
kindlin-3 PH domain [4] = molecular target: T2, kindlin-3 PH domain; experiment: SPR, immobilised biotinylated lipid headgroup as ligand, kindlin-3 PH domain WT as analyte; format: binding
Description: To verify the potential interaction between clustered phosphatidylinositol phosphates and the kindlin-3 PH domain observed in our MD simulations, we conducted surface plasmon resonance (SPR) experiments. Firstly, a biotinylated inositol phosphate was immobilised onto a streptavidin-derivatised sensor chip, as in previous studies. The use of streptavidin-mediated immobilisation meant that the distance separating individual lipids would be larger than the size of the tetrameric streptavidin, and therefore than the PH domain itself, meaning that one PH domain would be able to bind no more than one lipid headgroup simultaneously, imposing one-to-one binding in the interaction (Figure 4A). […] We note that, in the MD simulation with the mutated form of the kindlin-3 PH domain, the protein is capable of binding to the bilayer in a similar orientation to the wild type (WT); however, in many simulations, it quickly dissociates from the bilayer (Supplementary Figure S8). A naturally occurred IPRR (isoleucine–proline–arginine–arginine) insertion in the β1–β2 loop of kindlin-3 has been reported to disable integrin activation and thus lymphocyte adhesion and migration.
(§2) SPR experiments were performed using a Biacore T200 machine (GE Healthcare Life Sciences) at 20°C in 10 mM HEPES (pH 7.5) and 150 mM NaCl. PtdIns(4,5)P2 (C-45B6a) and PtdIns(3,4,5)P3 (C-39B6a) were purchased from Echelon Biosciences. The BIAcore CM5 chip (GE Healthcare Life Sciences) was firstly covered with streptavidin following the manufacturer's instructions before the biotinylated PIPs or biotinylated proteins were immobilised. The analyte with twofold serial dilutions was applied at a flow rate of 20 µl/min for 180 s followed by 600 s of dissociation time. The biosensor chip was regenerated after each sample injection cycle with a different buffer in the two experimental set-ups: in the case of immobilised PIPs on the sensor chip, 0.1% SDS was used; when the PH domain was immobilised, then the surface was regenerated by 2 M MgCl2. The data were fit with a 1:1 Langmuir adsorption model (B = BmaxC/(KD + C), where B is the response of bound analyte and C is the concentration of the analyte in the sample to calculate the dissociation constant (KD) using the BIAanalysis software. The molecular mass of the nanodiscs for SPR analysis was estimated to be 120 kDa.

[5] = tested on: T3, kindlin-3 PH domain, two lysines within the β1–β2 loop mutated; experiment: SPR, immobilised kindlin-3 PH domain with two β1–β2 loop lysines mutated, lipid nanodiscs as analyte; format: binding, mouse; details: site-directed mutagenesis of two lysines within the β1–β2 loop
T3 construct: kindlin-3 PH domain (residues 344–479); His6-GST (tandem), followed by HRV-3C site (N, cleaved yes); made in house; host or cells: BirA+ Escherichia coli strain
Description: as §1
as §2, with “The data were fit with a 1:1 Langmuir adsorption model (B = BmaxC/(KD + C), where B is the response of bound analyte and C is the concentration of the analyte in the sample to calculate the dissociation constant (KD) using the BIAanalysis software. The molecular mass of the nanodiscs for SPR analysis was estimated to be 120 kDa.” left out

[6] = immobilised headgroup on streptavidin chip, WT PH domain as analyte, 20°C, 10 mM HEPES pH 7.5, 150 mM NaCl, 1:1 Langmuir fit, read-out: dissociation constant (KD)

| Substance | Bmax (Grp1 PH domain [1]; immobilised PtdIns(3,4,5)P3 headgroup) [RU] | Kd (Grp1 PH domain [1]; immobilised headgroup) [µM] | nanodisc binding to the PH domain (in words) (kindlin-3 PH domain [2]; PtdIns(3,4,5)P3 composition reduced to 1% of nanodisc lipids) | PMF well depth (Grp1 PH domain [3]) [kcal/mol] | Kd (kindlin-3 PH domain [4]; immobilised headgroup on streptavidin chip, WT PH domain as analyte, 20°C, 10 mM HEPES pH 7.5, 150 mM NaCl, 1:1 Langmuir fit, listed as PIP3, read-out: dissociation constant (KD)) [µM] | Kd (kindlin-3 PH domain [4]; [6]) [µM] | nanodisc binding to the PH domain (in words) [5] | nanodisc binding to the PH domain (in words) (kindlin-3 PH domain [2]; inositol phosphate lipid 5% of total lipids in nanodisc) | Kd (kindlin-3 PH domain [4]; immobilised headgroup, PH domain as analyte, as given in the abstract, read-out: affinity (KD)) [µM] |
| --- | --- | --- | --- | --- | --- | --- | --- | --- | --- |
| PtdIns(3,4,5)P3 | 7150 | 2.8 ± 0.4 | abolishes nanodisc binding | -5.3 | ~300 | 300 | abolishes nanodisc binding |  |  |
| PtdIns(4,5)P2 |  |  |  | -3.8 |  | 1100 |  | no affinity | 1000 |
